Laboratory results reported in ChEMBL document CHEMBL5365543, “Benzamidine Conjugation Converts Expelled Potential Active Agents into Antifungals against Drug-Resistant Fungi” (J Med Chem, 2023).
In brackets after ≈: the same amount, converted by molar mass. Activity calls are given as the source filed them. The rule behind the calls is not given here.

Assays:
[1] = Toxicity in BALB/c mouse infected with clinical isolate fluconazole-resistant Candida albicans Gu5 assessed as animal survival at 6 mg/kg, ip administered on day 1 and day 3 post fungal infection measured after 4 days; assay type: organism-based; conditions: in vivo, 96 h, time 4 day
[2] = test system: Candida albicans; test: Antifungal activity against clinical isolate fluconazole-resistant Candida albicans Gu5 infected in BALB/c mouse assessed as fold reduction in kidney fungal burden at 6 mg/kg, ip administered on day 1 and day 3 post fungal infection measured after 7 days; assay type: functional; conditions: time 7.0 day
[3] = test system: Candida albicans; test: microbe, parasite or virus in culture; assay type: functional; conditions: DSY654, time 24 hrs
Description: Antifungal activity against efflux pump-deficient Candida albicans DSY654 assessed as inhibition of fungal growth measured after 24 hrs by CLSI based microtiter plate analysis

[4] = test system: Candida albicans; test: Antifungal activity against wild-type Candida albicans SC5314 assessed as inhibition of fungal growth measured after 24 hrs by CLSI based microtiter plate analysis; assay type: functional; conditions: Candida albicans, SC5314, 24 h, read-out: MIC80
[5] = test system: Candida albicans; test: Antifungal activity against clinical isolate Candida albicans YEM13 overexpressing efflux pump MdrL assessed as inhibition of fungal growth measured after 24 hrs by CLSI based microtiter plate analysis; assay type: functional
[6] = test system: Candida albicans; test: Antifungal activity against clinical isolate Candida albicans YEM15 overexpressing efflux pump CdrL and Cdr2 assessed as inhibition of fungal growth measured after 24 hrs by CLSI based microtiter plate analysis; assay type: functional
[7] = test system: Candida albicans; test: Antifungal activity against clinical isolate Candida albicans SCUPC2R14MPG2A harbouring UPC2 mutation overexpressing […] Erg11 assessed as inhibition of fungal growth measured after 24 hrs by CLSI based microtiter plate analysis; assay type: functional
[8] = test system: Candida albicans; test: Antifungal activity against clinical isolate fluconazole-resistant Candida albicans DSY296 harbouring TAC1 mutation overexpressing efflux pump CdrL and Cdr2 assessed as inhibition of fungal growth measured after 24 hrs by CLSI based microtiter plate analysis; assay type: functional
[9] = test system: Candida albicans; test: Antifungal activity against clinical isolate fluconazole-resistant Candida albicans G5 harbouring MRR1 mutation overexpressing MdrL assessed as inhibition of fungal growth measured after 24 hrs by CLSI based microtiter plate analysis; assay type: functional
[10] = test system: Candida albicans; test: Antifungal activity against clinical isolate fluconazole-resistant Candida albicans Gu5 harbouring TAC1 mutation overexpressing efflux pump CdrL and Cdr2 assessed as inhibition of fungal growth measured after 24 hrs by CLSI based microtiter plate analysis; assay type: functional
[11] = test system: Candida albicans; test: Antifungal activity against clinical isolate fluconazole-resistant Candida albicans CA632 assessed as inhibition of fungal growth measured after 24 hrs by CLSI based microtiter plate analysis; assay type: functional
[12] = test system: [Candida] auris; test: Antifungal activity against clinical isolate fluconazole-resistant Candida auris CBS12774 assessed as inhibition of fungal growth measured after 24 hrs by CLSI based microtiter plate analysis; assay type: functional; conditions: Candidozyma auris
[13] = test system: [Candida] auris; test: Antifungal activity against clinical isolate fluconazole-resistant Candida auris CBS12776 assessed as inhibition of fungal growth measured after 24 hrs by CLSI based microtiter plate analysis; assay type: functional; conditions: Candidozyma auris
[14] = test system: Nakaseomyces glabratus; test: Antifungal activity against clinical isolate fluconazole-resistant Candida glabrata CG2 assessed as inhibition of fungal growth measured after 24 hrs by CLSI based microtiter plate analysis; assay type: functional
[15] = test system: Cryptococcus neoformans; test: Antifungal activity against clinical isolate fluconazole-resistant Cryptococcus neoformans H99 assessed as inhibition of fungal growth measured after 24 hrs by CLSI based microtiter plate analysis; assay type: functional
[16] = test system: Candida tropicalis; test: Antifungal activity against clinical isolate fluconazole-resistant Candida tropicalis CT10 assessed as inhibition of fungal growth measured after 24 hrs by CLSI based microtiter plate analysis; assay type: functional
[17] = Induction of drug resistance in wild-type Candida albicans SC5314 assessed as change in MIC at 0.5 times of MIC measured after 30 passages by broth microdilution method (reference value: 2 microg/ml); assay type: functional
[18] = Induction of DNA damage in human HBE cells assessed as increase in gammaH2AX level at 8 microg/ml by Western blotting analysis; assay type: toxicity, cell-based; conditions: dose 8 µg/ml

SMILES | Activity [1] | Activity [2] | MIC80 [3] | MIC80 [4] | MIC80 [5] | MIC80 [6] | MIC80 [7] | MIC80 [8] | MIC80 [9] | MIC80 [10] | MIC80 [11] | MIC80 [12] | MIC80 [13] | MIC80 [14] | MIC80 [15] | MIC80 [16] | MIC [17] | Activity [18]
C=C1C(=O)[C@@]2(C)CC[C@@H]3[C@@]1(CC[C@H]1[C@@]3(C)CCC[C@@]1(C)C(=O)OCCC[P+](c1ccccc1)(c1ccccc1)c1ccccc1)C2.[I-] | Toxic | inactive |  |  |  |  |  |  |  |  |  |  |  |  |  |  |  | 
OC(Cn1cncn1)(Cn1cncn1)c1ccc(F)cc1F [FLUCONAZOLE] |  |  | 0.5 µg/mL (≈ 1.63 µM) | 2 µg/mL (≈ 6.53 µM) | 64 µg/mL (≈ 209 µM) | 64 µg/mL (≈ 209 µM) | > 128 µg/mL | > 128 µg/mL | > 128 µg/mL | > 128 µg/mL | > 128 µg/mL | > 128 µg/mL | > 128 µg/mL | 64 µg/mL (≈ 209 µM) | 2 µg/mL (≈ 6.53 µM) | > 128 µg/mL | 128 µg/mL | Non-Toxic
